# In ChEMBL document CHEMBL1201862, “PubChem BioAssay data set” (2004):
#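 Grown in 96-well plates, cells were treated for 48 hours with each compound at five concentrations. Insufficient inhibition: endpoint recorded as highest concentration tested. Abbreviation: GI50, concentration required for 50% inhibition of growth.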 Calls of active or inactive are those of the source. No stated cut-off is given here; in the data, active = GI50 up to about 1.1 µM and inactive = higher.
# How the values were obtained:
# Assay in all cases: growth of human tumour cells (NCI), 48 h
# [1] = system: BT-549
# [2] = system: MOLT-4
# [3] = system: SF-539
# [4] = system: CCRF-CEM
# [5] = system: LOX IMVI
# [6] = system: SNB-19
# [7] = system: EKVX
# [8] = system: NCI-H460
# [9] = system: K562
# [10] = system: SN12C
# [11] = system: SR
# [12] = system: Hs-578T
# [13] = system: HT-29
# [14] = system: SF-268
# [15] = system: SK-OV-3
# [16] = system: MDA-MB-231
# [17] = system: HCT-116
# [18] = system: COLO 205
# [19] = system: KM12
# [20] = system: NCI/ADR-RES
# [21] = system: IGROV-1
# [22] = system: A498
# [23] = system: NCI-H226
# [24] = system: T47D
# [25] = system: RPMI-8226
# [26] = system: SF-295
# [27] = system: UACC-62
# [28] = system: Malme-3M
# [29] = system: OVCAR-4
# [30] = system: NCI-H522
# [31] = system: MDA-N
# [32] = system: HOP-62
# [33] = system: SK-MEL-5
# [34] = system: SK-MEL-2
# [35] = system: PC-3
# [36] = system: HCT-15
# [37] = system: DU-145
# [38] = system: HL-60
# [39] = system: OVCAR-3
# [40] = system: RXF 393
# [41] = system: OVCAR-8
# [42] = system: UACC-257
# [43] = system: OVCAR-5
# [44] = system: ACHN
# [45] = system: U-251
# [46] = system: NCI-H23
# [47] = system: 786-0
# [48] = system: CAKI-1
# [49] = system: UO-31
# [50] = system: HOP-92
# [51] = system: MCF7
# [52] = system: M14
# [53] = system: HCC 2998
# [54] = system: A549
# [55] = system: MDA-MB-435
# [56] = system: SK-MEL-28
# [57] = system: TK-10
# [58] = system: SW-620
# [59] = system: SNB-75
smiles,measurement,setting,value
COc1ccc2c3c(c4cc(OC)c(OC)cc4c2c1)CN1CCC[C@H]1[C@@H]3O [TYLOPHORININE],GI50,[1],0.493 µM (active)
same,GI50,[2],< 0.0318 µM (active)
same,GI50,[3],0.253 µM (active)
same,GI50,[4],< 0.0359 µM (active)
same,GI50,[5],< 0.01 µM (active)
same,GI50,[6],< 0.01 µM (active)
same,GI50,[7],< 0.01 µM (active)
same,GI50,[8],< 0.0474 µM (active)
same,GI50,[9],0.0422 µM (active)
same,GI50,[10],< 0.0201 µM (active)
same,GI50,[11],< 0.0443 µM (active)
same,GI50,[12],< 0.0441 µM (active)
same,GI50,[13],< 0.0289 µM (active)
same,GI50,[14],< 0.0453 µM (active)
same,GI50,[15],0.0733 µM (active)
same,GI50,[16],< 0.0489 µM (active)
same,GI50,[17],< 0.0445 µM (active)
same,GI50,[18],0.039 µM (active)
same,GI50,[19],< 0.0371 µM (active)
same,GI50,[20],0.36 µM (active)
same,GI50,[21],< 0.0508 µM (active)
same,GI50,[22],< 0.0494 µM (active)
same,GI50,[23],0.27 µM (active)
same,GI50,[24],< 0.0404 µM (active)
same,GI50,[25],0.0676 µM (active)
same,GI50,[26],0.05 µM (active)
same,GI50,[27],< 0.0482 µM (active)
same,GI50,[28],0.249 µM (active)
same,GI50,[29],0.224 µM (active)
same,GI50,[30],0.29 µM (active)
same,GI50,[31],< 0.0404 µM (active)
CN(C(=O)c1ccncc1)c1ccccc1,GI50,[32],> 100 µM (inactive)
same,GI50,[33],> 100 µM (inactive)
same,GI50,[1],> 100 µM (inactive)
same,GI50,[34],> 100 µM (inactive)
same,GI50,[2],> 100 µM (inactive)
same,GI50,[3],> 100 µM (inactive)
same,GI50,[35],> 100 µM (inactive)
same,GI50,[36],> 100 µM
same,GI50,[37],> 100 µM (inactive)
same,GI50,[38],> 100 µM (inactive)
same,GI50,[5],> 100 µM (inactive)
same,GI50,[6],> 100 µM (inactive)
same,GI50,[7],> 100 µM (inactive)
same,GI50,[39],> 100 µM (inactive)
same,GI50,[8],> 100 µM (inactive)
same,GI50,[40],> 100 µM (inactive)
same,GI50,[41],> 100 µM (inactive)
same,GI50,[42],> 100 µM (inactive)
same,GI50,[43],> 100 µM (inactive)
same,GI50,[44],> 100 µM (inactive)
same,GI50,[45],> 100 µM (inactive)
same,GI50,[46],> 100 µM (inactive)
same,GI50,[9],> 100 µM (inactive)
same,GI50,[10],> 100 µM (inactive)
same,GI50,[11],> 100 µM (inactive)
same,GI50,[12],> 100 µM (inactive)
same,GI50,[47],> 100 µM (inactive)
same,GI50,[13],> 100 µM (inactive)
same,GI50,[14],> 100 µM (inactive)
same,GI50,[48],> 100 µM (inactive)
same,GI50,[49],> 100 µM (inactive)
same,GI50,[15],> 100 µM (inactive)
same,GI50,[16],> 100 µM (inactive)
same,GI50,[17],> 100 µM (inactive)
same,GI50,[50],> 100 µM (inactive)
same,GI50,[51],> 100 µM (inactive)
same,GI50,[52],> 100 µM (inactive)
same,GI50,[18],> 100 µM (inactive)
same,GI50,[53],> 100 µM (inactive)
same,GI50,[54],> 100 µM (inactive)
same,GI50,[19],> 100 µM (inactive)
same,GI50,[55],> 100 µM (inactive)
same,GI50,[20],> 100 µM (inactive)
same,GI50,[21],> 100 µM (inactive)
same,GI50,[22],> 100 µM (inactive)
same,GI50,[56],> 100 µM (inactive)
same,GI50,[57],> 100 µM (inactive)
same,GI50,[23],> 100 µM (inactive)
same,GI50,[24],> 100 µM (inactive)
same,GI50,[25],> 100 µM (inactive)
same,GI50,[26],> 100 µM (inactive)
same,GI50,[27],> 100 µM (inactive)
same,GI50,[58],> 100 µM (inactive)
same,GI50,[28],> 100 µM (inactive)
same,GI50,[29],> 100 µM (inactive)
same,GI50,[30],> 100 µM (inactive)
same,GI50,[59],> 100 µM (inactive)
